Reference: ChEMBL document CHEMBL1201862, “PubChem BioAssay data set” (2004)
Values joined by “and” are separate entries in the source; they are usually repeats but may differ in a detail not shown here. Equal values may be shown once.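 Assay format: 96-well plates, 48-hour exposure. GI50: concentration for 50% inhibition of growth.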 Active and inactive are the calls of the source. Rule as the data show it: active = GI50 up to about 1.1 µM and inactive = higher.

Columns and labels:
Experiment in all cases: DTP human tumour cell line panel, 48 h
A498 = test system: A498
CCRF-CEM = test system: CCRF-CEM
DU-145 = test system: DU-145
EKVX = test system: EKVX
HCC 2998 = test system: HCC 2998
HOP-62 = test system: HOP-62
Malme-3M = test system: Malme-3M
OVCAR-4 = test system: OVCAR-4
OVCAR-5 = test system: OVCAR-5
PC-3 = test system: PC-3
RPMI-8226 = test system: RPMI-8226
SF-268 = test system: SF-268
SF-295 = test system: SF-295
SK-MEL-2 = test system: SK-MEL-2
SK-MEL-5 = test system: SK-MEL-5
TK-10 = test system: TK-10
UACC-257 = test system: UACC-257
SF-539 = test system: SF-539

Compound | GI50 (A498) | GI50 (CCRF-CEM) | GI50 (DU-145) | GI50 (EKVX) | GI50 (HCC 2998) | GI50 (HOP-62) | GI50 (Malme-3M) | GI50 (OVCAR-4) | GI50 (OVCAR-5) | GI50 (PC-3) | GI50 (RPMI-8226) | GI50 (SF-268) | GI50 (SF-295) | GI50 (SK-MEL-2) | GI50 (SK-MEL-5) | GI50 (TK-10) | GI50 (UACC-257) | GI50 (SF-539)
Nc1ccccc1.O=P(O)(OP(=O)(O)c1ccccc1)c1ccccc1 | > 100 µM (inactive) | > 100 µM (inactive) | > 100 µM (inactive) | > 100 µM (inactive) | > 100 µM (inactive) | > 100 µM (inactive) | > 100 µM (inactive) | > 100 µM (inactive) | > 100 µM (inactive) | > 100 µM (inactive) | > 100 µM (inactive) | > 100 µM (inactive) | 96.4 µM (inactive) | > 100 µM (inactive) | > 100 µM (inactive) | > 100 µM (inactive) | > 100 µM (inactive) | –
C=C(C(=O)O)[C@@H]1C[C@@H]2O[C@H]1[C@@H](O)[C@@H](C)CCCC(C)=CCC[C@@]2(C)O | > 100 µM (inactive) | 33.3 µM (inactive) and > 46.8 µM (inactive) | > 100 µM (inactive) | > 100 µM (inactive) and > 94.4 µM (inactive) | > 100 µM (inactive) | > 100 µM (inactive) | > 100 µM (inactive) and > 72.9 µM (inactive) | > 100 µM (inactive) | > 100 µM (inactive) | > 100 µM (inactive) | – | > 100 µM (inactive) | > 100 µM (inactive) | > 100 µM (inactive) | > 100 µM (inactive) and > 91.6 µM (inactive) | > 100 µM (inactive) and > 52.1 µM (inactive) | > 100 µM (inactive) | 87.5 µM (inactive)
CCOC(=O)c1c(N2CCOCC2)ncn(-c2cccc(Cl)c2)c1=O | 0.159 µM (active) | > 100 µM (inactive) | > 100 µM (inactive) | > 100 µM (inactive) | > 100 µM (inactive) | > 100 µM (inactive) | > 100 µM (inactive) | > 100 µM (inactive) | > 100 µM (inactive) | > 100 µM (inactive) | > 100 µM (inactive) | > 100 µM (inactive) | > 100 µM (inactive) | > 100 µM (inactive) | – | > 100 µM (inactive) | > 100 µM (inactive) | > 100 µM (inactive)
CC[C@@H]1C[C@@H](O)[C@@H]2[C@H](O)[C@H](O)CN2C1 | > 100 µM (inactive) | > 100 µM (inactive) | > 100 µM (inactive) | > 100 µM (inactive) | > 100 µM (inactive) | – | > 100 µM (inactive) | > 100 µM (inactive) | > 100 µM (inactive) | > 100 µM (inactive) | > 100 µM (inactive) | > 100 µM (inactive) | > 100 µM (inactive) | > 100 µM (inactive) | > 100 µM (inactive) | > 100 µM (inactive) | > 100 µM (inactive) | > 100 µM (inactive)
Clc1ccc(C2=CC(c3ccccc3)N3C(=N[C@H]4CCCC[C@@H]43)N2)cc1 (stereo not given in full) | 10.4 µM (inactive) | 4.94 µM (inactive) | 8.41 µM (inactive) | 4.47 µM (inactive) | 2.08 µM (inactive) | – | 2.67 µM (inactive) | 5.61 µM (inactive) | 11.5 µM (inactive) | 6.56 µM (inactive) | 2.31 µM (inactive) | 6.14 µM (inactive) | 7.67 µM (inactive) | 13.6 µM (inactive) | 1.71 µM (inactive) | 7.5 µM (inactive) | 12.9 µM (inactive) | 6.08 µM (inactive)
CN(C)c1ccc(C2CC(c3ccc4ccccc4c3O)=NN2c2ccc([N+](=O)[O-])cc2[N+](=O)[O-])cc1 (stereo not given) | 68.4 µM (inactive) | 22.3 µM (inactive) | 64.9 µM (inactive) | – | 71 µM (inactive) | 75.5 µM (inactive) | 19.2 µM (inactive) | > 100 µM (inactive) | > 100 µM (inactive) | 23.6 µM (inactive) | – | 98.4 µM (inactive) | 40.1 µM (inactive) | 25.5 µM (inactive) | – | > 100 µM (inactive) | 58.5 µM (inactive) | 50.9 µM (inactive)
